Results reported in PubChem BioAssay AID328 (DTP/NCI, 2004).
Several values for one entry are separate records, joined by “and”; a condition that tells them apart may be missing. Equal entries are not always repeated. Toxic doses and inconclusive results are not listed. Residues, ends and D or L forms follow the SMILES beside them. *: point of attachment. Cbz = O=C(OCc1ccccc1)*

Test system: BDF1 mice, P388 leukemia ip, median survival T/C
Experiment: NCI In Vivo Anticancer Drug Screen. Data for tumor model P388 Leukemia (intraperitoneal) in B6D2F1 (BDF1) mice
Conditions: endpoint: median survival time, higher = longer survival
Experimental: The antitumor activity of compounds was measured in mice bearing transplantable tumors. Survival or tumor size were measured and the results are expressed as the measurement made in the treated group (T) divided by the measurement made in the vehicle treated control group (C). The tumor model used in this assay is P388 Leukemia (intraperitoneal) in B6D2F1 (BDF1) mice

[1] = dose: 50.0 mg/kg/injection, schedule: Q01DX009 (ip), vehicle: Klucel (hydroxypropylcellulose) (HPC)
[2] = dose: 100.0 mg/kg/injection, schedule: Q01DX009 (ip), vehicle: Klucel (hydroxypropylcellulose) (HPC)
[3] = dose: 200.0 mg/kg/injection, schedule: Q01DX009 (ip), vehicle: Klucel (hydroxypropylcellulose) (HPC)
[4] = dose: 50.0 mg/kg/injection, schedule: Q01DX009 (ip), vehicle: saline with Tween-80
[5] = dose: 100.0 mg/kg/injection, schedule: Q01DX009 (ip), vehicle: saline with Tween-80
[6] = dose: 200.0 mg/kg/injection, schedule: Q01DX009 (ip), vehicle: saline with Tween-80
[7] = dose: 400.0 mg/kg/injection, schedule: Q01DX009 (ip), vehicle: saline with Tween-80
[8] = dose: 50.0 mg/kg/injection, schedule: Q04DX003 (ip), vehicle: saline with Tween-80
[9] = dose: 200.0 mg/kg/injection, schedule: Q04DX003 (ip), vehicle: saline with Tween-80
[10] = dose: 100.0 mg/kg/injection, schedule: Q01DX009 (ip), vehicle: saline
[11] = dose: 200.0 mg/kg/injection, schedule: Q01DX009 (ip), vehicle: saline
[12] = dose: 25.0 mg/kg/injection, schedule: Q01DX009 (ip), vehicle: Klucel (hydroxypropylcellulose) (HPC)
[13] = dose: 100.0 mg/kg/injection, schedule: Q04DX003 (ip), vehicle: Klucel (hydroxypropylcellulose) (HPC)
[14] = dose: 100.0 mg/kg/injection, schedule: Q04DX003 (ip), vehicle: saline with Tween-80
[15] = dose: 200.0 mg/kg/injection, schedule: Q04DX003 (ip), vehicle: Klucel (hydroxypropylcellulose) (HPC)
[16] = dose: 400.0 mg/kg/injection, schedule: Q01DX009 (ip), vehicle: Klucel (hydroxypropylcellulose) (HPC)
[17] = dose: 400.0 mg/kg/injection, schedule: Q04DX003 (ip), vehicle: Klucel (hydroxypropylcellulose) (HPC)
[18] = dose: 25.0 mg/kg/injection, schedule: Q04DX003 (ip), vehicle: saline with Tween-80

COc1ccc(/C=C2\N=C(c3ccccc3)OC2=O)cc1OC
T/C (dose: 100.0 mg/kg/injection, schedule: Q01DX001 (ip), vehicle: saline): 90 % of control | T/C (dose: 200.0 mg/kg/injection, schedule: Q01DX001 (ip), vehicle: saline): 104 % of control | T/C (dose: 400.0 mg/kg/injection, schedule: Q01DX001 (ip), vehicle: saline): 104 % of control

CCN(c1ccc(C=O)cc1)c1ccc([N+](=O)[O-])cc1[N+](=O)[O-]
T/C [1]: 99 % of control | T/C [2]: 97 % of control | T/C [3]: 97 % of control

COC(=O)CC(CC(=O)c1ccccc1)c1ccccc1 (configuration not stated)
T/C [4]: 95 % of control | T/C [5]: 97 % of control | T/C [6]: 87 % of control | T/C [7]: 88 % of control

CCC1(C)CCC2=C(CCC3C(C)(C(=O)O)CCCC23C)C1 (configuration not stated)
T/C [4]: 100 % of control | T/C [8]: 96 % of control | T/C [5]: 87 % of control | T/C [6]: 100 % of control | T/C [9]: 96 % of control

C(=C\c1nc2ncccn2n1)/c1ccccc1
T/C [4]: 101 % of control | T/C [5]: 87 % of control | T/C [6]: 100 % of control

CC(C=C1CCCCC1)C(=O)O (configuration not stated)
T/C [10]: 113 % of control | T/C [11]: 109 % of control | T/C (dose: 400.0 mg/kg/injection, schedule: Q01DX009 (ip), vehicle: saline): 118 % of control

CCn1nnc2c(N(C)C)nc(N)nc21
T/C [12]: 92 % of control | T/C [1]: 92 % of control | T/C (dose: 50.0 mg/kg/injection, schedule: Q04DX003 (ip), vehicle: Klucel (hydroxypropylcellulose) (HPC)): 100 % of control | T/C [2]: 92 % of control | T/C [13]: 104 % of control

COc1cccc2c1C(=O)c1c(O)c3c(c(O)c1C2=O)C[C@@](O)(/C(C)=N/NC(=O)c1ccc(N(C)C)cc1)C[C@@H]3OC1CC(N)C(O)C(C)O1 (some centres not stated)
T/C (dose: 0.25 mg/kg/injection, schedule: Q01DX009 (ip), vehicle: water): 96 % of control | T/C (dose: 1.0 mg/kg/injection, schedule: Q01DX009 (ip), vehicle: water): 107 % of control and 110 % of control | T/C (dose: 2.0 mg/kg/injection, schedule: Q01DX009 (ip), vehicle: water): 233 % of control and 154 % of control | T/C (dose: 4.0 mg/kg/injection, schedule: Q01DX009 (ip), vehicle: water): 179 % of control | T/C (dose: 8.0 mg/kg/injection, schedule: Q01DX009 (ip), vehicle: water): 243 % of control

COc1ccc(C(C)c2ccccc2)cc1C(C)c1ccccc1 (configuration not stated)
T/C [14]: 109 % of control | T/C [9]: 90 % of control | T/C (dose: 400.0 mg/kg/injection, schedule: Q04DX003 (ip), vehicle: saline with Tween-80): 100 % of control

O=[N+]([O-])c1ccc(SNc2ccc(O)cc2)cc1[N+](=O)[O-]
T/C [2]: 100 % of control | T/C [13]: 100 % of control | T/C [3]: 90 % of control | T/C [15]: 104 % of control | T/C [16]: 109 % of control | T/C [17]: 104 % of control

Cc1ccc(NC(=S)NCCc2ccccn2)cc1C
T/C [4]: 101 % of control and 124 % of control | T/C [5]: 100 % of control and 102 % of control | T/C [6]: 104 % of control and 106 % of control | T/C [7]: 100 % of control

CCC(=O)O[C@H]1CC[C@H]2[C@@H]3CCC4=CC(=O)CC[C@]4(C)[C@H]3CC[C@]12C
T/C (dose: 100.0 mg/kg/injection, schedule: Q01DX009 (sc), vehicle: steriod suspending solution): 104 % of control | T/C (dose: 100.0 mg/kg/injection, schedule: Q04DX003 (sc), vehicle: steriod suspending solution): 105 % of control | T/C (dose: 200.0 mg/kg/injection, schedule: Q01DX009 (sc), vehicle: steriod suspending solution): 87 % of control | T/C (dose: 200.0 mg/kg/injection, schedule: Q04DX003 (sc), vehicle: steriod suspending solution): 100 % of control | T/C (dose: 400.0 mg/kg/injection, schedule: Q01DX009 (sc), vehicle: steriod suspending solution): 91 % of control | T/C (dose: 400.0 mg/kg/injection, schedule: Q04DX003 (sc), vehicle: steriod suspending solution): 100 % of control

C[N+]1(Cc2c[nH]c3ccsc23)CCCCC1
T/C (dose: 3.0 mg/kg/injection, schedule: Q01DX009 (ip), vehicle: saline with Tween-80): 87 % of control | T/C (dose: 3.0 mg/kg/injection, schedule: Q04DX003 (ip), vehicle: saline with Tween-80): 104 % of control | T/C (dose: 6.0 mg/kg/injection, schedule: Q01DX009 (ip), vehicle: saline with Tween-80): 91 % of control | T/C (dose: 6.0 mg/kg/injection, schedule: Q04DX003 (ip), vehicle: saline with Tween-80): 104 % of control | T/C (dose: 12.0 mg/kg/injection, schedule: Q01DX009 (ip), vehicle: saline with Tween-80): 100 % of control | T/C (dose: 12.0 mg/kg/injection, schedule: Q04DX003 (ip), vehicle: saline with Tween-80): 100 % of control

COC(=O)c1ccccc1OP(=O)(N(C)C)N(C)C
T/C [4]: 94 % of control | T/C [5]: 110 % of control | T/C [6]: 105 % of control

NC(=O)C(O)C(Br)(Br)Br (configuration not stated)
T/C [10]: 116 % of control | T/C (dose: 100.0 mg/kg/injection, schedule: Q04DX003 (ip), vehicle: saline): 95 % of control | T/C [11]: 108 % of control | T/C (dose: 200.0 mg/kg/injection, schedule: Q04DX003 (ip), vehicle: saline): 104 % of control | T/C (dose: 400.0 mg/kg/injection, schedule: Q04DX003 (ip), vehicle: saline): 100 % of control

NC(=S)N/N=C\c1ccc(/C=N/NC(N)=S)cc1
T/C [18]: 111 % of control | T/C [8]: 108 % of control | T/C [14]: 100 % of control

CC(C)(C)c1ccc(C(=O)C2CC2)cc1
T/C [18]: 90 % of control | T/C [8]: 95 % of control | T/C [14]: 86 % of control

O=C(O)Cc1c[nH]c2cccc(Cl)c12
T/C [4]: 93 % of control | T/C [5]: 98 % of control | T/C [6]: 100 % of control

COC1=CC(=O)CC(C)C12Oc1c(Cl)c(OC)cc(OC)c1C2=O (configuration not stated)
T/C [2]: 100 % of control | T/C [5]: 100 % of control | T/C [3]: 109 % of control | T/C [6]: 100 % of control | T/C [16]: 100 % of control | T/C [7]: 109 % of control

CCOC(=O)c1cc(N)c(C(=O)OCC)cc1N
T/C [4]: 99 % of control and 114 % of control | T/C [5]: 98 % of control and 108 % of control | T/C [6]: 106 % of control | T/C [7]: 99 % of control

CCC(c1ccc(O)cc1)C(CC)c1ccc(OC)cc1 (configuration not stated)
T/C [4]: 104 % of control | T/C [5]: 118 % of control | T/C [6]: 109 % of control

C[C@H](N)C(=O)N[C@@H]1[C@H]2C(=C(O)C[C@@H](O)[C@@H]2O)C(=O)O[C@@H]1C
T/C (dose: 100.0 mg/kg/injection, schedule: Q01DX010 (ip), vehicle: saline): 162 % of control | T/C (dose: 133.0 mg/kg/injection, schedule: Q04DX003 (ip), vehicle: saline): 112 % of control | T/C (dose: 266.0 mg/kg/injection, schedule: Q04DX003 (ip), vehicle: saline): 119 % of control | T/C (dose: 400.0 mg/kg/injection, schedule: Q01DX010 (ip), vehicle: saline): 162 % of control | T/C (dose: 532.0 mg/kg/injection, schedule: Q04DX003 (ip), vehicle: saline): 120 % of control | T/C (dose: 800.0 mg/kg/injection, schedule: Q01DX010 (ip), vehicle: saline): 175 % of control | T/C (dose: 2428.0 mg/kg/injection, schedule: Q04DX003 (ip), vehicle: saline): 166 % of control

CCOC(=O)CNC(=O)C(CC(C)C)NC(=O)C1CCCN1C(=O)OCc1ccccc1 (stereo not drawn) (Cbz-Pro-Leu-Gly-OEt; configuration not given here)
T/C (dose: 12.5 mg/kg/injection, schedule: Q01DX009 (ip), vehicle: Klucel (hydroxypropylcellulose) (HPC)): 124 % of control | T/C [12]: 89 % of control | T/C [1]: 95 % of control | T/C [13]: 87 % of control | T/C [15]: 91 % of control | T/C [17]: 87 % of control

C/C(=N\N=C(/C)c1ccc(Cl)cc1)c1ccc(Cl)cc1
T/C [2]: 95 % of control | T/C [3]: 90 % of control | T/C [16]: 113 % of control

CC1(C)O[Te]2(OC1(C)C)OC(C)(C)C(C)(C)O2
T/C (dose: 12.5 mg/kg/injection, schedule: Q01DX001 (ip), vehicle: saline with Tween-80): 104 % of control | T/C (dose: 25.0 mg/kg/injection, schedule: Q01DX001 (ip), vehicle: saline with Tween-80): 113 % of control

O=C1CC(Cl)C(=O)N1c1ccccc1 (configuration not stated)
T/C (dose: 75.0 mg/kg/injection, schedule: Q04DX003 (ip), vehicle: saline with Tween-80): 108 % of control | T/C (dose: 150.0 mg/kg/injection, schedule: Q04DX003 (ip), vehicle: saline with Tween-80): 104 % of control | T/C (dose: 300.0 mg/kg/injection, schedule: Q04DX003 (ip), vehicle: saline with Tween-80): 104 % of control
